In PubChem BioAssay (NCI):
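Where inhibition never reached the appropriate level, the endpoint shown equals the highest concentration tested. Otherwise, values were interpolated linearly from a five-concentration, 48-hour dose response in 96-well plates. Abbreviation: GI50, concentration required for 50% inhibition of growth. Definition used: TGI = concentration required for complete inhibition of growth.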

Experiments:
Assay in all cases: NCI tumour cell line growth inhibition, 48 h
[1] = tested on: MCF7 breast
[2] = tested on: LOX IMVI melanoma
[3] = tested on: IGROV1 ovarian
[4] = tested on: HS 578T breast
[5] = tested on: MOLT-4 leukemia
[6] = tested on: SF-268 CNS
[7] = tested on: HOP-92 NSCLC
[8] = tested on: K-562 leukemia

Compound	GI50 [1] [µM]	TGI [1] [µM]	GI50 [2] [µM]	TGI [2] [µM]	GI50 [3] [µM]	TGI [3] [µM]	GI50 [4] [µM]	TGI [4] [µM]	GI50 [5] [µM]	TGI [5] [µM]	GI50 [6] [µM]	TGI [6] [µM]	GI50 [7] [µM]	TGI [7] [µM]	GI50 [8] [µM]	TGI [8] [µM]
CCc1ccc2c(c1)N(CCO)C1=C(C(=O)OC1)C2c1cccc(Br)c1 (stereo unspecified)	0.244	1.68	0.663	17.2	2.56	25.9	0.468	20.9	0.62	19.3	0.722	15.9	3.15	21.5	0.368	14.7
CC(=O)/C=C/c1cn(C(=O)OC(C)(C)C)c2ccc(Br)cc12	9.71	46.5	10.7	25.2	15.9	39.5	26.8	65.4	41.6	> 100	24.1	97.9	13.4	35.8	18	> 54
O=C1OCC2=C1C(c1ccc(Cl)c(Cl)c1)c1cc3c(cc1N2CCO)OCCO3 (stereo unspecified)	0.208	> 50	0.316	10.8	0.542	> 33	0.273	> 37.6	0.456	> 42.3	0.261	11.6	0.236	8.2	0.211	> 22.6
Fc1ccc(/C=N/n2c(-c3ccc(F)c(Cl)c3)nn(CNc3ccccc3C(F)(F)F)c2=S)cc1	30.7	> 100	54.9	> 100	83.6	> 100	45.2	> 100	28.4	> 100	> 100	> 100	17.6	63.8	37.6	> 100
CN1C(=O)N(C)C2C1NN=c1s/c(=C\c3ccc(C(F)(F)F)cc3)c(=O)n12 (stereo unspecified)	0.392	> 100	0.854	> 100	2.65	> 100	2.13	81.9	2.55	> 100	10.4	> 100	0.433	57.9	0.431	> 100
COc1ccc2c(c1)N(CCO)C1=C(C(=O)OC1)C2c1cccc(F)c1 (stereo unspecified)	0.202	> 50	0.454	> 50	0.433	> 50	0.511	> 50	0.538	> 50	0.764	> 50	0.525	> 23.3	0.199	> 50
